Test results taken from ChEMBL document CHEMBL1201862, “PubChem BioAssay data set” (2004).
The source made the active and inactive calls.

Assays:
Cytochrome P450 2C19 = Cytochrome P450 2C19 (Homo sapiens, UniProt P33261); test: Cytochrome panel assay with activity outcomes. Panel member name: p450-cyp2c19 Compounds with AC50 equal or less than 10 uM are considered active; format: functional; settings: read-out: AC50
Cytochrome P450 1A2 = biological target: T1, Cytochrome P450 1A2 (Homo sapiens, UniProt P05177);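 also: PubChem cytochrome P450 panel assay, CYP1A2 panel member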
T1 sequence (P05177 whole entry): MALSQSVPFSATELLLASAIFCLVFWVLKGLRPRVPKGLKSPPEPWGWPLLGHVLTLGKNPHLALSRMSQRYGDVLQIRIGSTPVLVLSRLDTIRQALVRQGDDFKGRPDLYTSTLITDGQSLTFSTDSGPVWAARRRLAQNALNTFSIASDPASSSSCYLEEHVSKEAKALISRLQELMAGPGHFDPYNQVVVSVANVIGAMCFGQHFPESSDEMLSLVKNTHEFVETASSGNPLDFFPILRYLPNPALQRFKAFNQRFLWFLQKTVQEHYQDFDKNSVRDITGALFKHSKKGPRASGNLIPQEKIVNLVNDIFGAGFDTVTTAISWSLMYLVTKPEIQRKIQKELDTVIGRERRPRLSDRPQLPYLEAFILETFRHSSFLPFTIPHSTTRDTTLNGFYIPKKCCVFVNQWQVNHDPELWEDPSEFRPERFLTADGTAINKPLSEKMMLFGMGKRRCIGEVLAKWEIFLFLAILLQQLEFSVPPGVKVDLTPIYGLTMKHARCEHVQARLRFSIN

[1] = Luminescence Cell-Based Dose Response HTS to Identify Inhibitors of 5'UTR Stem-Loop Driven Prion Protein mRNA Translation in H4 Neuroglioblastoma Cells. [Related pubchem assays: 1827 (Project Summary), 1813 (Primary HTS)]; format: functional
[2] = inhibitors of firefly luciferase expression or activity, dose response, H4 neuroglioma cells, luminescence (AID 1990); format: functional, cell-based
[3] = inhibitors of SNCA 5'UTR-driven reporter translation, confirmation, H4 neuroglioma cells, luminescence (AID 1988); format: functional, cell-based
[4] = biological target: T2, Heat shock factor protein 1 (Mus musculus, UniProt P38532); test: HSF1 potentiators in luciferase reporter cells, confirmation, cell-based, NIH3T3, luminescence, dose retest (AID 435004); format: functional;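 also: stress induced by proteasome inhibitor MG132 added 30 min after compound; luciferase reporter driven by HSF1 response element in NIH3T3 cells; actives raise luminescence as potentiators of the MG132 stress response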
T2 sequence (P38532 whole entry): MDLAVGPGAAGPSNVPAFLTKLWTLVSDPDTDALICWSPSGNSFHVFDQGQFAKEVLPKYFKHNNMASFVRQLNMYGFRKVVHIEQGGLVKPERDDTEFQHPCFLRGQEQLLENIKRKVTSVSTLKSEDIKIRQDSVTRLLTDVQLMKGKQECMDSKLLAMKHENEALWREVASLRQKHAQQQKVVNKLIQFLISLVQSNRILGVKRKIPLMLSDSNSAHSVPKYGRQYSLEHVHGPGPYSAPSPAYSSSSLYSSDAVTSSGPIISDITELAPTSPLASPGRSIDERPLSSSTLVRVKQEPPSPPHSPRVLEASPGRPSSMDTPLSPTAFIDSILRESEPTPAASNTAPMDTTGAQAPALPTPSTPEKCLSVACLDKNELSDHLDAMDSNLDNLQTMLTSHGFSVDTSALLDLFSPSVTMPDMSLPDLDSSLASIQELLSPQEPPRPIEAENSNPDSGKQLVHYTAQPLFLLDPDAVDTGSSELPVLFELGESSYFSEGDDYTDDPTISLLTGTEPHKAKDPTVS

Cytochrome P450 3A4 = Cytochrome P450 3A4 (Homo sapiens, UniProt P08684);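 also: CYP3A4 tested as one member of a cytochrome P450 panel screen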
[5] = biological target: T3, Corticotropin-releasing factor receptor 2/Corticotropin-releasing factor-binding protein (Homo sapiens, UniProt P24387+Q13324); test: activators of CRF receptor 2 with binding protein – uHTS hits, confirmation (AID 602473); format: functional; settings: read-out: EC50_Mean
T3 sequence (Q13324 whole entry): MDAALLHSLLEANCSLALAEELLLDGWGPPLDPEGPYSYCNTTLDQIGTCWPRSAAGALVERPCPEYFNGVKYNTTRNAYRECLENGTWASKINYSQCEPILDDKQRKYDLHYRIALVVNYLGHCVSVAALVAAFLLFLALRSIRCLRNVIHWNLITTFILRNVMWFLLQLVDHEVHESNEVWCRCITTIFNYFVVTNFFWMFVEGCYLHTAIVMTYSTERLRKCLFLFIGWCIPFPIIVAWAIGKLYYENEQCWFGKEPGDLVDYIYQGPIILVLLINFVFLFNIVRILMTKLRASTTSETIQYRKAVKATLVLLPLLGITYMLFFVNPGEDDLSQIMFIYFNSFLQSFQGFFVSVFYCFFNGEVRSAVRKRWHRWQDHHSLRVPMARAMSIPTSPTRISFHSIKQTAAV
T3 sequence (P24387 whole entry): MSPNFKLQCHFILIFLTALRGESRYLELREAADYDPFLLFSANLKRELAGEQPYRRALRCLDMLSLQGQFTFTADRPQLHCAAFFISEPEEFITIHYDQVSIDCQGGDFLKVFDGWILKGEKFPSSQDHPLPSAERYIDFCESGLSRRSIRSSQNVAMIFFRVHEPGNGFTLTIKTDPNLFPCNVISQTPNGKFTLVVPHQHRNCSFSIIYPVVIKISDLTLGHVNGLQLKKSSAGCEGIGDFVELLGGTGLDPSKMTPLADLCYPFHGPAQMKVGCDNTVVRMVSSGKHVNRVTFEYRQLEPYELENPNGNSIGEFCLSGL

[6] = biological target: T3, Corticotropin-releasing factor receptor 2/Corticotropin-releasing factor-binding protein; test: Dose Response confirmation of uHTS hits for small molecule antagonists of the CRF-binding protein and CRF-R2 receptor complex.; format: functional; settings: read-out: IC50_Mean
[7] = biological target: T4, Rac GTPase-activating protein 1 (Homo sapiens, UniProt Q9H0H5); test: MgcRacGAP GTPase-activating activity inhibitors, confirmation, biochemical, ADP Hunter fluorescence, primary and confirmatory (AID 624330); format: functional
T4 sequence (Q9H0H5 whole entry): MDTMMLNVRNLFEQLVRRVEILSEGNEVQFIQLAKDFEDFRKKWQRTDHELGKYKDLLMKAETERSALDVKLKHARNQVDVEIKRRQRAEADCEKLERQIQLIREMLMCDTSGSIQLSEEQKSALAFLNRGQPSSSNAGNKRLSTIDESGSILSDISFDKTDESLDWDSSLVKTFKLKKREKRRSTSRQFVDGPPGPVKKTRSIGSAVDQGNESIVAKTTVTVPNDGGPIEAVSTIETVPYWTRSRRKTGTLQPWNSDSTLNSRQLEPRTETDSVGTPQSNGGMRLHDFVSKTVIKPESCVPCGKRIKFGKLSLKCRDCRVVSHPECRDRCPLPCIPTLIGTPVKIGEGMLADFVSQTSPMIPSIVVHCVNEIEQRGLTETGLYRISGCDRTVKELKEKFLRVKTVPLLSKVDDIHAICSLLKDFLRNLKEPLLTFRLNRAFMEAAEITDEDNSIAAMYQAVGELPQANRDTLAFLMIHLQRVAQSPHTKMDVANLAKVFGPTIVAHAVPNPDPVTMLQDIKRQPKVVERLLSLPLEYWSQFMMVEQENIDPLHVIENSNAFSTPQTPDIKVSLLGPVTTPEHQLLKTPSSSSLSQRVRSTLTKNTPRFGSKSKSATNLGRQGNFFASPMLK

Cytochrome P450 2C9 = Cytochrome P450 2C9 (Homo sapiens, UniProt P11712)
[8] = cytotoxicity toward NIH3T3 fibroblasts, dose response, counter-screen, cell-based, ATP luminescence, mouse fibroblasts (AID 2010); format: functional;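 also: cells exposed to compound for about 90 hours before reading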
[9] = inhibitors of intracellular T. cruzi replication, confirmation, NIH3T3 host cells, beta-gal luminescence (AID 2044); format: functional, cell-based;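 also: intracellular parasites grown in NIH/3T3 mouse fibroblasts as host cells; luminescent beta-galactosidase reporter signal from transgenic T. cruzi replicating inside host cells; inhibitors lower the luminescence signal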

Cytochrome P450 2C19, sequence (P33261 whole entry): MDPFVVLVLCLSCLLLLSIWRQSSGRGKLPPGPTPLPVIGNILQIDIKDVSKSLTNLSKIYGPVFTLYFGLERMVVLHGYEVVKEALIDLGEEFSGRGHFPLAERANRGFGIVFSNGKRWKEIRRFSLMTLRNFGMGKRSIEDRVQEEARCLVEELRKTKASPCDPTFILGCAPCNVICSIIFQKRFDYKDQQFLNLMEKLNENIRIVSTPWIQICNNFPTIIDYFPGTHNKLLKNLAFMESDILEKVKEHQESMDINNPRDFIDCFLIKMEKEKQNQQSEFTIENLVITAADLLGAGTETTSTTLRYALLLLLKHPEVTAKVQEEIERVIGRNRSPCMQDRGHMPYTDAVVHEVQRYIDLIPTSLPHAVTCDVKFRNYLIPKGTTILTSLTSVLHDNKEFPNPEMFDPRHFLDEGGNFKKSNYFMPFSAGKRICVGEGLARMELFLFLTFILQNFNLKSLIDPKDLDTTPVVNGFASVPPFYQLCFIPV
Cytochrome P450 3A4, sequence (P08684 whole entry): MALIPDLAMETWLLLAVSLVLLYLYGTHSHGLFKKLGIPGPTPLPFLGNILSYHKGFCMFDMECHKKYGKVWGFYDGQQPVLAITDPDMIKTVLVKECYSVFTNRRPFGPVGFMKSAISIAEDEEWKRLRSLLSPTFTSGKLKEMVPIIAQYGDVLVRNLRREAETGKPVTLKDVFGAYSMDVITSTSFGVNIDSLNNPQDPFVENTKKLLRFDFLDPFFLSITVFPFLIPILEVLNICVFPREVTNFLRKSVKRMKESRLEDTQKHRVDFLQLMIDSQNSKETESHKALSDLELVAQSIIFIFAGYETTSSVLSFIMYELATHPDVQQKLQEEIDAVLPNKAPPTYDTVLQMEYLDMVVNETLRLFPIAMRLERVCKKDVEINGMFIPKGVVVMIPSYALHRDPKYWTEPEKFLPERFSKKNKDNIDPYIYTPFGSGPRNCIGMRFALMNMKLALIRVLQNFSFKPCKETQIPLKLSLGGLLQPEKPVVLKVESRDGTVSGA
Cytochrome P450 2C9, sequence (P11712 whole entry): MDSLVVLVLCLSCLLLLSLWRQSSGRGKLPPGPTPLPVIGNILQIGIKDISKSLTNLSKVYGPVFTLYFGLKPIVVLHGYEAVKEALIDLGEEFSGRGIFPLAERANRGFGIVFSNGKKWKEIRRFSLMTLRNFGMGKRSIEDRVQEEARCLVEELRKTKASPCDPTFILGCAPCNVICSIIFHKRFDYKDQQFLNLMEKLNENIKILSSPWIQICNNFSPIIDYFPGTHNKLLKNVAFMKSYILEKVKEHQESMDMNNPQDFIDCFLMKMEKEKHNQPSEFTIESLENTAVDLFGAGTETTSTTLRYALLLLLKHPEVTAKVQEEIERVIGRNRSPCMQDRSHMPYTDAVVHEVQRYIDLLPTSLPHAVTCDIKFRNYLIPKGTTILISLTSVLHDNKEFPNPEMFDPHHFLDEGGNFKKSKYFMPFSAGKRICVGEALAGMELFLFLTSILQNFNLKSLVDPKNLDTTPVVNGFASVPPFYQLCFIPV

## N[C@H](C(=O)O)C1[C@H](C(=O)O)[C@H]1C(=O)O (stereo partly specified)
Cytochrome P450 2C19
  AC50: 31.6 µM (inconclusive)
Cytochrome P450 1A2
  AC50: 31.6 µM (inconclusive)

## Cc1ccc(-n2ccc(=O)c(-c3ccnc(SCc4cccc(Cl)c4)n3)n2)cc1
Cytochrome P450 1A2
  AC50: 14.1 µM (inconclusive)

## O=C(Nc1ccc2c(c1)OCO2)c1nn(-c2ccccc2)c(=O)c2ccccc12
[1]
  EC50: 24 µM (active)
[2]
  EC50: > 120 µM (not active)
[3]
  EC50: > 120 µM (not active)

## Cc1cc(F)c(F)c(C(=O)N2CCOCC2)c1Cl
[4]
  EC50: > 260 µM (inactive)

## CC(=O)Nc1ccc2c(c1)N(C(=O)CN(C)C)c1ccccc1CC2
[4]
  EC50: > 260 µM (inactive)

## Nc1c(S(=O)(=O)c2ccccc2)c2nc3ccccc3nc2n1Cc1ccco1
Cytochrome P450 1A2
  AC50: 22.4 µM (inconclusive)

## COC(=O)[C@@]1(Cc2ccc(OC)cc2)[C@H]2c3cc(C(=O)N4CCCC4)n(Cc4ccc(Cl)c(C(F)(F)F)c4)c3C[C@H]2CN1C(=O)c1ccccc1
Cytochrome P450 1A2
  AC50: 12.6 µM (inconclusive)
Cytochrome P450 3A4
  AC50: 1.26 µM (inconclusive)

## O=c1c(-c2ccccc2)nc2cnc(N3CCNCC3)nc2n1Cc1ccc(F)cc1
Cytochrome P450 2C19
  AC50: 31.6 µM (inconclusive)
Cytochrome P450 1A2
  AC50: 20 µM (inconclusive)

## COc1ccc(Nc2ccccc2)c(C)c1
[5]
  EC50: > 53 µM (inactive)
[6]
  IC50: > 47.1 µM (inactive)
[7]
  IC50: 44.9 µM (active)

## COc1ccc(N(CC(=O)Nc2ccc(S(=O)(=O)N3CCCCC3)cc2)S(C)(=O)=O)cc1OC
[1]
  EC50: > 120 µM (not active)
[2]
  EC50: > 120 µM (not active)
[3]
  EC50: > 120 µM (not active)

## COc1ccc(CNC2CCSc3ccccc32)cc1OC (stereo unspecified)
[4]
  EC50: > 260 µM (inactive)

## O=C(c1ccco1)N(Cc1ccc([N+](=O)[O-])cc1)c1ccc(Br)cc1
[4]
  EC50: > 260 µM (inactive)

## COC(=O)[C@@]1(Cc2ccc(F)cc2)[C@H]2c3cc(C(=O)N(C)C)n(Cc4cccc5ccccc45)c3C[C@H]2CN1C(=O)c1ccccc1
Cytochrome P450 1A2
  AC50: 6.31 µM (inconclusive)

## Brc1ccccc1Cn1c(-c2cncs2)nc2ccccc21
[1]
  EC50: > 120 µM (not active)
[2]
  EC50: 17.1 µM (active)
[3]
  EC50: > 120 µM (not active)

## COCCN(C(=O)C(C)C)c1nnc(-c2ccc(C)cc2)s1
Cytochrome P450 1A2
  AC50: 12.6 µM (inconclusive)

## COc1cccc(Cn2c(=O)c(CCc3ccccc3)nc3cncnc32)c1
Cytochrome P450 2C19
  AC50: 25.1 µM (inconclusive)
Cytochrome P450 2C9
  AC50: 12.6 µM (inconclusive)
Cytochrome P450 1A2
  AC50: 12.6 µM (inconclusive)

## Cc1cc2occ(CC(=O)NCc3cccs3)c2cc1C(C)C
[4]
  EC50: > 260 µM (inactive)

## CSc1nsc(/C=C/Nc2ccc(Cl)cc2)c1C#N
Cytochrome P450 2C19
  AC50: 3.55 µM (inconclusive)
Cytochrome P450 1A2
  AC50: 5.62 µM (inconclusive)

## CCN1CCSc2ccc(C(=O)NCc3cccc(Br)c3)cc21
[4]
  EC50: > 260 µM (inactive)

## COc1ccc(C(=O)CC(=O)C(=O)Nc2cc(OC)c(OC)c(OC)c2)cc1
[4]
  EC50: > 260 µM (inactive)

## Cc1cccc(S(=O)(=O)NCCC(=O)OC(C)C(=O)NC(=O)NC2CCCCC2)c1 (stereo unspecified)
[4]
  EC50: > 260 µM (inactive)

## COc1ccc(CN(C(=O)c2ccc(C)cc2)C2CCS(=O)(=O)C2)cc1 (stereo unspecified)
[5]
  EC50: > 53 µM (inactive)
[6]
  IC50: > 47.1 µM (inactive)

## Cc1ncc([N+](=O)[O-])n1CCOC(N)=O [BAMNIDAZOLE]
[5]
  EC50: > 53 µM (inactive)
[6]
  IC50: > 47.1 µM (inactive)

## Cc1nnsc1-c1onc(C)c1C(=O)O/N=C/c1ccc(Cl)cc1
[5]
  EC50: > 53 µM (inactive)
[6]
  IC50: > 47.1 µM (inactive)

## Cc1cccn2c(=O)nc(SCC(=O)N3N=C(c4cccs4)CC3c3ccc(F)cc3)nc12 (stereo unspecified)
[8]
  EC50: 11.6 µM (active)
[9]
  EC50: 1.48 µM (active)
[4]
  EC50: > 260 µM (inactive)

## COc1ccc([N+](=O)[O-])cc1N(CC(=O)NCCCOC(C)C)S(C)(=O)=O
[5]
  EC50: > 53 µM (inactive)
[6]
  IC50: > 47.1 µM (inactive)

## Cc1ccc(C(=O)Cn2nc(C(=O)O)c3ccccc3c2=O)cc1C
[4]
  EC50: > 260 µM (inactive)

## COc1ccc(C2c3c(-c4ccccc4O)n[nH]c3C(=O)N2Cc2ccco2)cc1 (stereo unspecified)
[5]
  EC50: > 53 µM (inactive)
[6]
  IC50: > 47.1 µM (inactive)

## Cn1c(C(=O)OC(C(=O)NC(C)(C)C)c2cccnc2)cc2sccc21 (stereo unspecified)
[8]
  EC50: 48.4 µM (active)
[9]
  EC50: 1.23 µM (active)
[4]
  EC50: > 260 µM (inactive)

## N#Cc1ccsc1NC(=O)COC(=O)CCCSc1nc2ccccc2s1
[1]
  EC50: > 120 µM (not active)
[2]
  EC50: > 120 µM (not active)
[3]
  EC50: 16.1 µM (active)

## Cc1ccc(Cl)cc1N1CCN(C(=O)Cc2c(C(=O)O)[nH]c3ccc(Cl)cc23)CC1
[5]
  EC50: > 53 µM (inactive)
[6]
  IC50: > 47.1 µM (inactive)

## CC(NC(=O)C1CCCN1S(=O)(=O)c1cccc2nsnc12)c1ccccc1 (stereo unspecified)
[5]
  EC50: > 53 µM (inactive)
[6]
  IC50: > 47.1 µM (inactive)

## O=c1c(-c2ccc(Cl)cc2)nc2cnc(N3CCNCC3)nc2n1Cc1ccc(F)cc1
Cytochrome P450 2C19
  AC50: 39.8 µM (inconclusive)
Cytochrome P450 1A2
  AC50: 15.8 µM (inconclusive)
Cytochrome P450 3A4
  AC50: 12.6 µM (inconclusive)

## COC(=O)C1=C(C)N(Cc2ccc(C)cc2)C(=O)/C1=C\c1cc(OC)c(OC)c(OC)c1
[4]
  EC50: 11.6 µM (active)

## O=C(COC(=O)CCc1ccc(S(=O)(=O)N2CCOCC2)cc1)Nc1ccccc1OC(F)F
[5]
  EC50: > 53 µM (inactive)
[6]
  IC50: > 47.1 µM (inactive)

## Cc1nn(C(C)C(=O)NCCCN2CCCCC2C)c(=O)c2c1sc1ccccc12 (stereo unspecified)
[4]
  EC50: > 260 µM (inactive)
